Patent US20020151487A1, “Method and reagents for epithelial barrier formation and treatment of malignant and benign skin disorders by modulating the notch pathway” (Loyola University Chicago, priority 2000, published 2002)

Columns and labels:
MOM-2b cells = test: Invasion through MATRIOEL coated filters; assay type: cell-based; conditions: MOM-2b cells pretreated overnight with 100 nM
Method: In a second experiment, MOM-2b cells were pretreated overnight with 100 nM compound E or untreated culture medium and then analyzed for invasive behavior by culturing them on MATRIOEL™ coated filters, into which aggressive melanoma will invade. After 20 hours, cells that have not invaded through the filters were discarded and cells that had migrated into the top of the filters were stained, lysed, and then assayed for absorbance at 350 nm to quantitate the number of cells that had invaded through the filter.

Cytotoxicity = assay type: cell-based; conditions: concentrations <300 nM
Notch-1 = test: Western blotting for Notch-1 in MOM-2b cells; assay type: cell-based; conditions: 100 nM
Method: Two cultures of MOM-2b cells (an aggressive melanoma cell line) were cultured in standard medium alone or in the presence of 100 nM of a gamma secretase inhibitor, which interferes with Notch signaling (Supont Compound E; Seiffaert et al., J. Biol. Chem., 275, 34086 (2000)). The cells then were lysed and assayed for the presence of Notch-1 by Western blotting.

NF-κB [1] = test: NF-κB luciferase assay in transfected keratinocytes; assay type: cell-based, human
Method: (§1) Keratinocyte cultures were initiated from discarded neonatal foreskins, in which epidermis was separated from dermis using dispase (Mukherjee et al, Chemical and Structural Approaches to Rational Drug Design (Weiner et al., eds.) CRC Press, pp. 237-61 (Boca Raton, 1994). Keratinocytes were induced to proliferating using a low calcium (0.07 mM), serum-free medium (KGM, Clonetics Corp., San Diego, Calif.). Keratinocytes were grown in 10 cm plastic petri dishes, and passaged at 60-70% confluency, and maintained in a humidified incubator at 37° C. with 5% CO2. Keratinocytes were also grown in 8-well Lab Tek Chambers as previously described (Mukherjee et al., supra). Keratinocytes were used between 2 and 4 passages. In some experiments, keratinocytes were pre-treated with KGM containing an elevated calcium ion concentration (i.e. 2 mM) for 24 hrs prior to addition of JAG-1 peptide, or other stimuli as indicated.
To perform the luciferase-based NF-κB assays, normal keratinocytes were seeded in 6-well plates as previously described (Qin et al., supra). At approximately 50% to 60% confluence, the cells were co-transfected with 0.8 μg of pNF-κB-LUC vector (CLONTECH Laboratories, Palo Alto, Calif.) containing a firefly luciferase gene with K enhancer and 0.2 μg of PRL-TK plasmid DNA which contains Renella Luciferase gene to normalize the transfection efficiency. The same amount of control vector in which the κ enhancer was removed from pNF-κB-LUC was also used to co-transfect the cells.
DNA was transfected into keratinocytes using Fu-Gene 6 Transfection Reagent (Roche Molecular Biochemicals) according to the manufacturer's protocol. After 36 hours of transfection, cells were treated with either TNF-α (10^3 U/ml; R&D Systems, Minneapolis, Minn.) or the indicated peptides.
The preparation of cell lysate and luciferase activity measurements were made with DUAL LUCIFERASE™ Reporter Assay System (Promega, Madison Wis.) according to the manufacturer's instructions. The sample was placed in a TD-20/20 luminometer (CLONTECH Laboratories) for detection of light intensity.

p50 and p65 subunits = test: Western blot of keratinocyte nuclei for NF-κB subunits; assay type: cell-based, human; conditions: keratinocytes in 2 mM calcium; 30 minutes and 1 hour after addition
Method: (§2) Whole cell lysates, or nuclear and cytoplasmic extracts, were prepared to detect different proteins as previously described (Chaturvedi et al., J. Biol. Chem., 274, 2358-67 (1999)). Briefly, keratinocytes were washed with ice cold phosphate buffered saline (PBS), and harvested by scraping the monolayers into 1 ml PBS, and pelleted in a […] microcentrifuge tube. The cell pellet was suspended in 400 μl of buffer A (10 mM HEPES, 10 mM KCl, 1 mM EDTA, 1 mM EGTA, 1 mM dithiothreitol, 0.5 mM phenylmethlysulfonyl fluoride, and 5 μg/ml leupeptin). After 20 min incubation on ice, 25 μl of 10% Nonidet P-40 was added and then centrifuged briefly. The supernatant represented the cytoplasmic extracts. The nuclear pellet was resuspended in 60-80 μl of buffer C (20 mM HEPES, 0.4 M NaCl, 1 mM EDTA, 1 mM EGTA, 1 mM dithiothreitol, 0.5 mM phenylmethylsulfonyl fluoride, and 5 μg/ml leupeptin) and incubated at 4° C. with shaking for 15 min. The nuclear debris was removed by centrifugation at 4° C.
(§3) For the whole cell lysate, cells were washed with cold PBS and incubated in CHAPS buffer on ice for 15 min. After centrifugation at 4° C., the supernatants were saved as whole cell lysate. The protein concentration of each sample was determined with Bio-Rad protein assay reagent. […]

NF-κB [2] = test: Electromobility shift assay (EMSA) of keratinocyte nuclear extracts; assay type: cell-based, human; conditions: heterodimers p50 and p65 and p50/p50 homodimers
Method: EMSA were done as described previously (Qin et al., supra). 5 μg of nuclear proteins were incubated on ice with 1 μg of poly(dI-dC) (Amersham Pharmacia Biotech) in a buffer containing 10 mM HEPES, 60 mM KCl, 1 mM dithiothreitol, 1 mM EDTA, and 4% Ficoll for 10 min. The ^32P-labeled double strand NF-κB binding oligonucleotide (10^5 cpm) was then added to the reaction mixture for an additional 20 min on ice. The NF-κB oligonucleotide had the following sequence: SEQ ID NO:14 (5′-[…]-3′). For experiments involving supershift analysis, 2-4 μg of polyclonal antibodies against different subunits of NF-κB (Santa Cruz Biotech) were incubated with nuclear proteins for 30 min on ice prior to addition of ^32P-labeled NF-κB probe. All the reaction mixtures were resolved on 4% polyacrylamide gels.

[3] = system: Jagged-1 and Notch receptors; test: Immunostaining of cultured keratinocyte monolayers for Jagged-1 and Notch receptors; assay type: cell-based, human
Method: as §1
(§4) Portions of the epidermal equivalents were fixed in 10% neutral buffered formalin, embedded in paraffin and routinely stained with 1% hematoxylin and eosin. […] When using Lab Tek cultures, these slides were rinsed in PBS and fixed with ice-chilled acetone for 10 mins prior to addition of primary antibodies. Cryostat sections of skin also were fixed using ice-cold acetone. In all cases, a highly sensitive avidin biotin peroxidase procedure (Vectastain Kit, Vector Labs, Burlingame, Calif.) was used with a positive red reaction product obtained using […] as the chromagen.

IKKα = IKKα immunocomplex kinase assay; assay type: cell-based, human; conditions: for kinase activity of IKKα: substrate GST-IκBα (1-54), after 30 and 60 minutes
Method: For immunoprecipitation 2 μg of anti-IKKα and anti-IKKβ were added to the whole cell lysate for 2 hours on ice. 30 μl of protein A-G sepharose beads were added and incubated at […] for 90 minutes. Beads were washed 3 times in wash buffer, and the beads were boiled with 2xSDS sample buffer. Kinase activity was performed using GST-IκBα as substrate (Hu et al., Science, 284, 316-20 (1999)).

Notch 1 = test: Western blot for Notch 1 in keratinocytes; assay type: cell-based, human; conditions: 6 hours and 24 hours after addition
Method: as §2, §3

epidermal equivalents = test: Living epidermal equivalent model system; assay type: cell-based, human; conditions: for terminal differentiation and cornification: continuously submerged cultures, 4 days later
Method: Reconstituted epidermis, known as epidermal equivalents were purchased from MatTek Corp., Ashland, Mass.
as §4
For these experiments a living epidermal equivalent model system was used, because it provided an opportunity to examine the individual components of the Notch pathway (i.e. Notch ligand and receptors) before, and after, induction of differentiation for keratinocytes maintained in a multi-layered or stratified configuration that closely resembles normal human skin. Epidermal equivalents consist of keratinocytes grown to produce a multi-layered structure that are initially prepared using submerged keratinocytes. Following this initial preparation, the cultures are exposed to an air-liquid interface in a moistened chamber for three days that can initiate the early stage of differentiation, designated as day 0. Under these conditions, approximately 5-7 layers are produced with a progressive flattening of the top level keratinocytes, which can include occasional cells with keratohyalin granules, and focal appearance of loricrin positive cells and corneocytes. When cultures arrived at day 0, they can either be re-submerged in medium or lifted-up and maintained on a support to create an air-liquid interface within a tissue culture well. After lifting of the cultures, the multi-layered keratinocytes are exposed to the air, with the subjacent membrane being moistened and fed only from the underlying medium within the well. Lifting the cultures at day 0, triggers the terminal differentiation process, which typically is completed within about 5 to about 7 days.

IκBα = test: Western blot of keratinocyte cytoplasmic extracts for IκB proteins; assay type: cell-based, human
Method: as §2
For the whole cell lysate, cells were washed with cold PBS and incubated in CHAPS buffer on ice for 15 min. After centrifugation at 4° C., the supernatants were saved as whole cell lysate. The protein concentration of each sample was determined with Bio-Rad protein assay reagent. 30 μg of protein were loaded on 8-12.5% SDS-polyacrylamide gel, transferred to Immobilon-P (polyvinylidene difluoride) membrane and blocked in 5% powdered milk in TBST (50 mM Tris, pH 7.5, 150 mM NaCl, 0.01% Tween 20). The membrane was incubated with primary antibody overnight at 4° C. in 2.5% powdered milk in TBST and then was washed extensively with TBST, and incubated with 1:1500 anti-rabbit or mouse-HRP (Amersham Pharmacia Biotech). Proteins were visualized with the ECL detection kit (Amersham Pharmacia Biotech). The equivalent loading of proteins in each well was confirmed by Ponceau staining.

PKC-alpha = PKC-alpha localization in keratinocytes; assay type: cell-based, human
Method: as §4

keratinocytes = test: Terminal differentiation of cultured keratinocyte monolayers; assay type: cell-based, human; conditions: for loricrin and involucrin immunostaining: 2 mM calcium keratinocyte cultures; for stratification of keratinocyte monolayer: 2 mM calcium, as early as 3 days following addition
Method: as §1, §4

[4] = re-submerged day 0 cultures, observed on day 5

C[C@H](NC(=O)Cc1cc(F)cc(F)c1)C(=O)N[C@H]1N=C(c2ccccc2)c2ccccc2N(C)C1=O [compound E]
OD350 (cells invaded through the filter) (MOM-2b cells; after 20 hours): 0.378 | inhibition of aggressive behavior in melanoma cells (MOM-2b cells; versus control culture): 75% | cytotoxicity (Cytotoxicity): did not exhibit cytotoxicity | activation of Notch-1 (Notch-1): completely blocked

JAG-1: synthetic peptide with Notch agonist activity corresponding to Jagged-1 residues 188-204 (SEQ ID NO:11), part of the DSL region (CDDYYYGFGCNKFCRPR; JAG-1 Notch ligand)
NF-κB activation (luciferase) (NF-κB [1]; high calcium (2 mM) medium): did trigger NF-κB activation | NF-κB activation (luciferase) (NF-κB [1]; low calcium (0.07 mM) medium): not low calcium conditions | intranuclear levels of p50 and p65 subunits (p50 and p65 subunits): markedly enhanced intranuclear levels | NF-κB transcriptional activity (binding to NF-κB probe) (NF-κB [2]): can activate NF-κB transcriptional activity | Notch-1 cellular localization ([3]; 24 hours after stimulation): re-distributed to the cytoplasm | Notch 3 immunolocalization ([3]; after addition of peptide): disappearance of both membrane and cytosolic Notch 3 | Notch 4 immunolocalization ([3]; after peptide stimulation): loss of membrane and cytosolic Notch 4 | Jagged-1 cellular localization ([3]; keratinocytes in 2 mM calcium, twenty-four hours after addition): loss of this plasma membrane staining | amount of IKKα present (IKKα; immediately following stimulation): not accompanied by any significant change | kinase activity of IKKα (IKKα): did activate | Notch 1 levels (Notch 1): decreased to barely detectable levels | terminal differentiation and cornification (epidermal equivalents; 50 μM added on day 0): triggered terminal differentiation and cornification | apoptosis in submerged epidermal equivalent (epidermal equivalents; [4]): reduced the apoptotic process | loricrin expression in submerged epidermal equivalent (epidermal equivalents; [4]): diffuse loricrin expression | stratum corneum formation in submerged epidermal equivalent (epidermal equivalents; [4]): thick stratum corneum layer | relatively low constitutive level of IκBα (IκBα; 7-minute to 6-hour time points): slightly reduced | cytoplasmic IκBα level (most prominent inhibitory protein) (IκBα; after 24 hours): no consistent decline | relatively low constitutive level of IκBα (IκBα; after 24 hours): became undetectable | PKC-alpha localization (PKC-alpha; epidermal equivalents, upper layers of differentiated keratinocytes): plasma membrane localization for PKC-alpha | PKC-alpha translocation (PKC activation) (PKC-alpha; keratinocyte monolayers): induced translocation of PKC-alpha from the cytoplasm to the plasma membrane | loricrin and involucrin immunostaining (keratinocytes): strong induction | stratification of keratinocyte monolayer (keratinocytes): began piling-up to form 3-dimensional stratified clusters

R-JAG: second peptide with agonist activity (SEQ ID NO:12) derived from the same region of Jagged-1, with specific amino acid changes (CDDYYYGFGCNKFGRPRDD; r-JAG1 Notch ligand)
kinase activity of IKKα (IKKα): did activate | terminal differentiation and cornification (epidermal equivalents; 40 μM added on day 0): triggered terminal differentiation and cornification | loricrin and involucrin immunostaining (keratinocytes): strong induction | stratification of keratinocyte monolayer (keratinocytes): began piling-up to form 3-dimensional stratified clusters

SC-JAG: scrambled control peptide without agonist activity (SEQ ID NO:13) (RCGPDCFDNYGRYKYCF; Scrambled JAG peptide) [reference compound]
kinase activity of IKKα (IKKα): little effect | terminal differentiation and cornification (epidermal equivalents; 40 μM added on day 0): not

TNF-α [reference compound]
NF-κB activation (luciferase) (NF-κB [1]; high calcium (2 mM) medium): positive control for NF-κB activation | NF-κB activation (luciferase) (NF-κB [1]; low calcium (0.07 mM) medium): positive control for NF-κB activation | kinase activity of IKKα (IKKα): little effect
